Measured values published in publication PMC8262356, “SLC26A6-selective inhibitor identified in a small-molecule screen blocks fluid absorption in small intestine” (JCI Insight, 2021).

Target: T1, slc26a2 (Mus musculus, UniProt Q62273)
T1 construct: Full -length slc26a2 cDNAs; expressed in transfected cells; host or cells: 293 T/17 cells, transient transfection with pIRES-HIF vector (IRES-YFP, not fused)
T1 sequence (Q62273 1-739): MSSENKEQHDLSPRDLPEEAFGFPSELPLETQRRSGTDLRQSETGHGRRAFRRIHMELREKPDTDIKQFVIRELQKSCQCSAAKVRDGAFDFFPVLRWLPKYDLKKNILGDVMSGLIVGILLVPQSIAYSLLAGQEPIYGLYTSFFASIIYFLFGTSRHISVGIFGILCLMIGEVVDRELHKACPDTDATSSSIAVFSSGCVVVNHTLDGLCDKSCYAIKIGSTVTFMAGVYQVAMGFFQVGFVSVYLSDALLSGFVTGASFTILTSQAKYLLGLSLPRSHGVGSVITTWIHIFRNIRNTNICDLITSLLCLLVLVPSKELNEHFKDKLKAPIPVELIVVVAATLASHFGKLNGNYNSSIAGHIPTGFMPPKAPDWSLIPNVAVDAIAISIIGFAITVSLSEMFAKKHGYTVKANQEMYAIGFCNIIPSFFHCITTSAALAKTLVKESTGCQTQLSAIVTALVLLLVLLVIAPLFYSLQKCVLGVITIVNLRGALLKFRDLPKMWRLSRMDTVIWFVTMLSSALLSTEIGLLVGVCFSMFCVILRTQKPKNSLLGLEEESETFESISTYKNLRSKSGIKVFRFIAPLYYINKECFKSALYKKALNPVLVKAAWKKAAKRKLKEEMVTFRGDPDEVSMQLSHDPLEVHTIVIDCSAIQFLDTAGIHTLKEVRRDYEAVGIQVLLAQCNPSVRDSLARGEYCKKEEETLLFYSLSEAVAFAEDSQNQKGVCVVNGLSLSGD
Test: Selectivity: Cl-/I- exchange in 293T/17 cells transfected with slc26a2 and YFP
Assay type: cell-based
Conditions: 25 μM, 10 min preincubation
Description: YFP-based cellular assays of slc26a3, slc26a4, SLC26A9, and TMEM16A function were performed as described previously ([7]). Slc26a1 and slc26a2 assays were done in transfected HEK 293 cells (see Supplemental Methods for details). Niflumic acid was used as a positive control for SLC26A isoforms ([7]). For TMEM16A, the selective small-molecule inhibitor TMinh-23 was used as a positive control ([28]). The activities of ENaC, CFTR, and CaCC were determined using well-differentiated HBE cells as described previously ([13]). Cl^–/HCO3^– exchange was measured as described previously ([7], [10], [11]). Briefly, cell cytoplasm was labeled with the pH-sensitive fluorescent dye BCECF-AM (Invitrogen), and Cl^–/HCO3^– exchange was measured in response to addition of a gluconate-containing solution to drive exchange of cytoplasmic Cl^– for extracellular HCO3^–, producing cytoplasmic alkalinization.
Slc26a1 and slc26a2 cDNA constructs
The complementar y DNA sequences of slc26a1 and slc26a2 were generated using gB LOCK gene fragments (Int egrat ed DNA technology, Coralville, IA) in the plasmid vector pIRESpuro3 (Takara, San J ose, CA). […]
PBS. […] Background-corrected, area-integrat ed single cell fluorescence was calcul ated for determination of slc26a1 / slc26a2 activit y from the rate of fluorescence quenching. […]

effect on slc26a2 activity: did not affect
Compound: Cc1c(Br)c(C(F)(F)F)nn1CC(=O)N1CCc2nc3cc(-c4ccccc4)[nH]n3c(=O)c2C1 [PAT1inh-B01]
